Measurements: article PMC9403976, “Elucidating the path to Plasmodium prolyl-tRNA synthetase inhibitors that overcome halofuginone resistance” (Nature Communications, 2022)
Where “and” joins values, the source holds several entries; their conditions need not be identical. Equal entries are not always repeated. Where two headings read alike, the source gives them in different places.

Experiments:
HsProRS = HsProRS (Homo sapiens, UniProt P07814); test: TR-FRET ligand displacement assay with tracer MAT379 (CoraFluor-1-Halo and anti-His6 antibody formats); assay type: binding; parameters: made in house; host or cells: E. coli SoluBL-21; conditions: for TR-FRET dose-response, normalized signal (SI Fig 11): individual replicates
PfcProRS = target: T1, PfcProRS (Plasmodium falciparum, UniProt Q8I5R7); assay type: binding; conditions: single replicates
T1 construct: made in house; host or cells: E. coli SoluBL-21

P. falciparum Dd2-2D4 = test: P. falciparum asexual blood stage (ABS) growth assay, SYBR Green, 72 h, wild-type parasites; assay type: cell-based, Plasmodium falciparum; conditions: Plasmodium falciparum, DD2; SI Fig 16b; values on -log scale; read-out: ABS - Dd2-2D4 (converted)

T1 sequence (Q8I5R7 249-746): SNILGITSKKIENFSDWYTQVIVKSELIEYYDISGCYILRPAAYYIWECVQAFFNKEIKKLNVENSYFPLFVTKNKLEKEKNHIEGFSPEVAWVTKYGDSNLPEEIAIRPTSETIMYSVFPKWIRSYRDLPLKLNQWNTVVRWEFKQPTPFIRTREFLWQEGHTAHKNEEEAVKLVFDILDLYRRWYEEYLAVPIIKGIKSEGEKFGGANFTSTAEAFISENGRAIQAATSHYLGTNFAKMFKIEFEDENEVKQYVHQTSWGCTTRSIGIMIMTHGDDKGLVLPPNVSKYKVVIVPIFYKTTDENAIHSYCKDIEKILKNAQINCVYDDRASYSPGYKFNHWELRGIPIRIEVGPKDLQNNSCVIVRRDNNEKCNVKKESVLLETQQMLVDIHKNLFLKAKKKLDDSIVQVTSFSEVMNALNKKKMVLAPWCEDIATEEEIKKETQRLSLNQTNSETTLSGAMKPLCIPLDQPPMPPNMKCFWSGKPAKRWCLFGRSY
Sequence of HsProRS (P07814 996-1512): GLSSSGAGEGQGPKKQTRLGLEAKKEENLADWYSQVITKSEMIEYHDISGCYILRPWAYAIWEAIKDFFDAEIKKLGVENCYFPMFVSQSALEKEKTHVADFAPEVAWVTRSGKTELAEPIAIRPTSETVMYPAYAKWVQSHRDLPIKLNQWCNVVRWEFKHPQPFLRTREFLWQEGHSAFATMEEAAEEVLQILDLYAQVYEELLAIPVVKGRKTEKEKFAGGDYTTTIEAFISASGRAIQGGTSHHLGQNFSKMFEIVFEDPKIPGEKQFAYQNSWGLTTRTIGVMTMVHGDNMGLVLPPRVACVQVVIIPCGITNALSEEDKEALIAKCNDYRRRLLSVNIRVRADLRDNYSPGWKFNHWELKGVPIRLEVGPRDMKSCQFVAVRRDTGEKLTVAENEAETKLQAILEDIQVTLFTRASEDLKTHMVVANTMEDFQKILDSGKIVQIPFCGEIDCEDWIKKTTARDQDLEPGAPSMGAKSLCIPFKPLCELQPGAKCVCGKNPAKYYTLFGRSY

## CC(C)(C)OC(=O)N1CCN(C(=O)Nc2nccnc2C(=O)NC2Cc3ccccc3C2)CC1 [compound 13]
HsProRS
  IC50: > 10000 nM
HsProRS; + 100 μM proline, 10 μM
  HsProRS % signal at 10 μM, + 100 μM proline: 52.2%
HsProRS; Log[inhibitor] (M) -5.000
  normalized TR-FRET ligand displacement signal, dose-response replicates (SI Fig 6): 5.04E-01 and 5.72E-01 and 5.31E-01
  TR-FRET dose-response, normalized signal (SI Fig 11): 5.54E-01 and 6.12E-01 and 6.15E-01
HsProRS; Log[inhibitor] (M) -5.301
  normalized TR-FRET ligand displacement signal, dose-response replicates (SI Fig 6): 6.63E-01 and 7.73E-01 and 7.12E-01
  TR-FRET dose-response, normalized signal (SI Fig 11): 7.87E-01 and 7.25E-01 and 6.74E-01
HsProRS; Log[inhibitor] (M) -5.601
  normalized TR-FRET ligand displacement signal, dose-response replicates (SI Fig 6): 9.43E-01 and 7.95E-01 and 9.57E-01
  TR-FRET dose-response, normalized signal (SI Fig 11): 8.12E-01 and 8.26E-01 and 8.38E-01
HsProRS; Log[inhibitor] (M) -5.904
  normalized TR-FRET ligand displacement signal, dose-response replicates (SI Fig 6): 9.95E-01 and 9.88E-01 and 9.03E-01
  TR-FRET dose-response, normalized signal (SI Fig 11): 8.50E-01 and 8.61E-01 and 8.43E-01
HsProRS; Log[inhibitor] (M) -6.208
  normalized TR-FRET ligand displacement signal, dose-response replicates (SI Fig 6): 1.02E+00 and 9.02E-01 and 9.17E-01
  TR-FRET dose-response, normalized signal (SI Fig 11): 9.15E-01 and 9.28E-01 and 8.71E-01
HsProRS; Log[inhibitor] (M) -6.509
  normalized TR-FRET ligand displacement signal, dose-response replicates (SI Fig 6): 9.58E-01 and 9.37E-01 and 9.28E-01
  TR-FRET dose-response, normalized signal (SI Fig 11): 9.05E-01 and 9.50E-01 and 9.14E-01
HsProRS; Log[inhibitor] (M) -6.796
  normalized TR-FRET ligand displacement signal, dose-response replicates (SI Fig 6): 1.05E+00 (2×) and 9.53E-01
  TR-FRET dose-response, normalized signal (SI Fig 11): 9.07E-01 and 9.30E-01 and 8.71E-01
HsProRS; Log[inhibitor] (M) -7.108
  normalized TR-FRET ligand displacement signal, dose-response replicates (SI Fig 6): 1.05E+00 and 1.10E+00 and 9.73E-01
  TR-FRET dose-response, normalized signal (SI Fig 11): 9.13E-01 and 9.30E-01 and 9.12E-01
HsProRS; Log[inhibitor] (M) -7.409
  normalized TR-FRET ligand displacement signal, dose-response replicates (SI Fig 6): 1.03E+00 and 1.01E+00 (2×)
  TR-FRET dose-response, normalized signal (SI Fig 11): 9.32E-01 and 9.37E-01 and 8.25E-01
HsProRS; Log[inhibitor] (M) -7.710
  normalized TR-FRET ligand displacement signal, dose-response replicates (SI Fig 6): 9.23E-01 (2×) and 9.87E-01
  TR-FRET dose-response, normalized signal (SI Fig 11): 9.18E-01 and 8.75E-01 and 8.91E-01
HsProRS; Log[inhibitor] (M) -8.000
  normalized TR-FRET ligand displacement signal, dose-response replicates (SI Fig 6): 9.04E-01 and 9.35E-01 and 9.98E-01
  TR-FRET dose-response, normalized signal (SI Fig 11): 9.32E-01 and 9.16E-01 and 8.80E-01
HsProRS; Log[inhibitor] (M) -8.301
  normalized TR-FRET ligand displacement signal, dose-response replicates (SI Fig 6): 9.80E-01 and 9.08E-01 and 1.02E+00
  TR-FRET dose-response, normalized signal (SI Fig 11): 8.80E-01 and 9.57E-01 and 9.53E-01
HsProRS; Log[inhibitor] (M) -8.602
  normalized TR-FRET ligand displacement signal, dose-response replicates (SI Fig 6): 9.80E-01 and 9.47E-01 and 9.05E-01
  TR-FRET dose-response, normalized signal (SI Fig 11): 9.10E-01 and 9.58E-01 and 9.24E-01
HsProRS; Log[inhibitor] (M) -9.000
  normalized TR-FRET ligand displacement signal, dose-response replicates (SI Fig 6): 9.78E-01 and 9.57E-01 and 9.87E-01
  TR-FRET dose-response, normalized signal (SI Fig 11): 9.07E-01 and 8.93E-01 and 8.97E-01
HsProRS; Log[inhibitor] (M) -9.301
  normalized TR-FRET ligand displacement signal, dose-response replicates (SI Fig 6): 9.45E-01 and 8.63E-01 and 9.67E-01
  TR-FRET dose-response, normalized signal (SI Fig 11): 9.11E-01 and 8.69E-01 and 9.61E-01
HsProRS; no added proline/ATP (-), 10 μM
  HsProRS % signal at 10 μM: 59.4%
HsProRS; read-out: HsProRS IC50 + 100 μM proline, + 100 μM proline
  IC50: > 10000 nM
PfcProRS; Log[inhibitor] (M) -5.000
  dose-response signal (normalized), SI Fig 8: 6.57E-01 and 6.36E-01 and 6.64E-01
PfcProRS; Log[inhibitor] (M) -5.301
  dose-response signal (normalized), SI Fig 8: 8.73E-01 and 7.48E-01 and 7.96E-01
PfcProRS; Log[inhibitor] (M) -5.601
  dose-response signal (normalized), SI Fig 8: 9.97E-01 and 9.02E-01 and 8.50E-01
PfcProRS; Log[inhibitor] (M) -5.904
  dose-response signal (normalized), SI Fig 8: 9.78E-01 and 1.07E+00 and 1.00E+00
PfcProRS; Log[inhibitor] (M) -6.208
  dose-response signal (normalized), SI Fig 8: 1.06E+00 (2×) and 9.45E-01
PfcProRS; Log[inhibitor] (M) -6.509
  dose-response signal (normalized), SI Fig 8: 1.17E+00 and 1.01E+00 and 1.09E+00
PfcProRS; Log[inhibitor] (M) -6.796
  dose-response signal (normalized), SI Fig 8: 1.13E+00 and 1.01E+00 and 1.17E+00
PfcProRS; Log[inhibitor] (M) -7.108
  dose-response signal (normalized), SI Fig 8: 1.04E+00 and 9.91E-01 and 1.15E+00
PfcProRS; Log[inhibitor] (M) -7.409
  dose-response signal (normalized), SI Fig 8: 1.05E+00 and 1.06E+00 and 1.03E+00
PfcProRS; Log[inhibitor] (M) -7.710
  dose-response signal (normalized), SI Fig 8: 1.04E+00 and 9.80E-01 and 9.98E-01
PfcProRS; Log[inhibitor] (M) -8.000
  dose-response signal (normalized), SI Fig 8: 1.08E+00 and 9.50E-01 and 1.05E+00
PfcProRS; Log[inhibitor] (M) -8.301
  dose-response signal (normalized), SI Fig 8: 1.02E+00 and 1.08E+00 and 1.09E+00
PfcProRS; Log[inhibitor] (M) -8.602
  dose-response signal (normalized), SI Fig 8: 9.84E-01 and 9.74E-01 and 9.67E-01
PfcProRS; Log[inhibitor] (M) -9.000
  dose-response signal (normalized), SI Fig 8: 1.06E+00 and 9.60E-01 and 9.76E-01
PfcProRS; Log[inhibitor] (M) -9.301
  dose-response signal (normalized), SI Fig 8: 1.07E+00 and 9.33E-01 and 9.62E-01

## O=C(NC1Cc2ccccc2C1)c1nccnc1NC(=O)C1(O)CCCCC1 [compound 15]
HsProRS; HsProRS (KD [nM]) mean, no added proline/ATP (-)
  Kd: 2700 nM
HsProRS; HsProRS - best Kd, SI Fig 16a, values on -log scale
  Kd: 21.8 nM
P. falciparum Dd2-2D4
  EC50: 1500 nM
